Laboratory results published in patent US4839385A, “Use of manoalide and its derivatives for modifying calcium homeostasis” (The Regents of the University of California, priority 1987, dated 1989).

What was measured:
Assay type in all cases: cell-based
A431 cells = assay: EGF-induced calcium signal in A431 human epidermoid carcinoma cells; conditions: 1.5 μM; 5 minutes; EGF 5 μg/ml
Experimental: The A431 cell line, human epidermoid carcinoma cell, can be activated with 5 μg/ml epidermal growth factor (EGF). Sawyer, S. T. and Cohen, S (Biochemistry 20, 6280-6286, 1981) have shown that EGF enhances calcium uptake in these cells.
A431 Cells were grown in 150 ml Falcon flasks containing Dulbecco's modified Eagle's medium (Gibco) supplemented with 10% fetal calf serum (Irvine Scientific) and gentamycin.

Peptic cells [1] = assay: CCK or carbachol stimulated increase in calcium (release from intracellular stores) in peptic cells
Experimental: (§1) Gastric glands contain both peptic cells (release of calcium from intracellular stores) and parietal cells (plasma membrane calcium channel). Gastric cells were isolated as described by Muallem, et. al. (Amer. J. Physiol. 248-G216-G228, 1985). Addition of CCK or carbachol to a final concentration of […] and 0.1 mM respectively were used to activate these cells. Muallem et al. (J. Biol. Chem.: In Press, 1986) have shown that these hormones stimulate these cells and result in an increase in free intracellular cytosolic calcium.
(§2) With peptic cells, the hormones CCK or carbachol cause release of calcium from intracellular stores. […] The calcium signal in these cells is different from that observed in the conconavalin stimulated release of calcium from spleen cells.
The calcium transient observed is characteristic of the release of calcium from intracellular stores. If calcium is removed from the extracellular medium it has no effect on the calcium signal.

EL-4 = assay: Inhibition of growth of tumor cell line EL-4
Mouse spleen cells = assay: Effect of manoalide on Con A-induced rise in intracellular calcium in mouse spleen cells (FURA-2)
Experimental: When 40 μg/ml Con A was added to single cell suspensions of mouse spleen cells were prepared by the standard methods, a rapid rise in intracellular calcium was observed. This calcium signal is characteristic of calcium moving from outside the cell to inside through a plasma membrane channel. If calcium is removed from the external medium, the rise in intracellular calcium is completely absent.
(§3) The concentration of free intracellular calcium was determined by loading the cells with a calcium sensitive florescent dye, FURA-2® (Grynkiewicz, G., Poenig, M. and Tsien, R. J., Biol. Chem 260: 3440-3450, 1985). Fluorescence measurements and calibration curves were done the same as for Quin-2, Pandol, S., Schoeffield, M., Sachs, G. and Muallem, S. (J. Biol. Chem 10081-10086, 1985).
(§4) Once the cells were loaded, aliquots (10^6 cells/ml) were placed in cuvettes and the baseline intracellular calcium concentration determined.
(§5) Manoalide was dissolved in polyethylene glycol 400 or dimethylsulfoxide and added as indicated before the Con A was added to the cuvette.
(§6) *All cells were preincubated at 37° C. for 5 minutes before
(§7) addition of Con A (40 μg/ml).

Peptic cells [2] = assay: Pepsin secretion in peptic cells after CCK, carbachol or forskolin stimulation
Experimental: as §1, §2
To examine the correlation between secretion and the calcium signal, the effects of manoalide on pepsin secretion were quantitated (Table 3).

Human lymphocytes = assay: Effect of manoalide on Con A-induced calcium rise in human lymphocytes (FURA-2); conditions: Lymphocyte, 5 min preincubation 37° C., Con A 40 μg/ml
Experimental: as §3, §4, §5
Similar results were obtained with human lymphocytes isolated and prepared according to the method of Muallem, et al.
as §6, §7

intracellular stores = assay: Calcium release from intracellular stores, gastric glands; conditions: 30-50 μM
Excerpt: (§8) The effect of manoalide on intracellular calcium levels was investigated through experiments using gastric glands. These glands contain two types of cells that use either plasma membrane channels or release from intracellular stores to increase cytosolic calcium.

Parietal cells = assay: Acid secretion in parietal cells after carbachol or forskolin stimulation
[3] = system: plasma membrane calcium channels; assay: Calcium entry through plasma membrane calcium channels, gastric glands; conditions: 1 μM and less
Excerpt: as §8

## CC1=C(CC/C(C)=C/CCC2=CCC(C3=CC(=O)OC3O)OC2O)C(C)(C)CCC1 (centres unmarked) [manoalide]
A431 cells
  effect on the Ca signal: complete abolition
Peptic cells [1]; 5 μM
  inhibition of CCK or carbachol stimulated increase in calcium: no inhibition
Peptic cells [1]; 50 μM or higher
  inhibition of the calcium signal: showed inhibition of the calcium signal
  nature of the inhibition of the calcium signal: irreversible and time dependent
Peptic cells [1]; 60 μM
  inhibition of the calcium signal: significant inhibition of the calcium signal
EL-4
  tumor cell growth inhibition: inhibited from growing
Mouse spleen cells; 0.5 μM, 5 min preincubation 37° C., 40 μg/ml Con A
  inhibition of the rise in intracellular calcium: complete inhibition
Mouse spleen cells; Con A 40 μg/ml
  nature of the inhibition of the calcium signal: time dependent and irreversible
Mouse spleen cells; Mus musculus, 0.01 μM, 5 min preincubation 37° C., Con A 40 μg/ml
  inhibition at 0.01 µM: 0%
Mouse spleen cells; Mus musculus, 0.1 μM, 5 min preincubation 37° C., Con A 40 μg/ml
  inhibition at 0.1 µM: 30%
Mouse spleen cells; Mus musculus, 0.3 μM, 5 min preincubation 37° C., Con A 40 μg/ml
  inhibition at 0.3 µM: 70%
Mouse spleen cells; Mus musculus, 1.0 μM, 5 min preincubation 37° C., Con A 40 μg/ml
  inhibition at 1 µM: 100%
Peptic cells [2]; CCK Stimulation (N = 5)
  activity at 0.1 µM: 100%
  activity at 0.5 µM: 105%
  activity at 5 µM: 115%
  activity at 50 µM: 60%
Peptic cells [2]; Carbachol (2)
  activity at 0.1 µM: 100%
  activity at 0.5 µM: 110%
  activity at 5 µM: 110%
  activity at 50 µM: 40%
Peptic cells [2]; Forskolin (2)
  activity at 0.1 µM: 100%
  activity at 0.5 µM: 100%
  activity at 5 µM: 100%
  activity at 50 µM: 100%
Peptic cells [2]; peptic cells, read-out: concentration below which no inhibition of the biological effect was observed
  minimal effective concentration: > 50 µM
Human lymphocytes; 0.05 μM
  inhibition at 0.05 µM: 0%
Human lymphocytes; 0.1 μM
  inhibition at 0.1 µM: 15%
Human lymphocytes; 0.25 μM
  inhibition at 0.25 µM: 30%
Human lymphocytes; 0.5 μM
  inhibition at 0.5 µM: 65%
Human lymphocytes; 1.0 μM
  inhibition at 1 µM: 100%
Intracellular stores
  calcium release from intracellular stores: blocks calcium release
Parietal cells; Carbachol Stimulation
  activity at 0.1 µM: 50%
  activity at 0.5 µM: 10%
  activity at 5 µM: 0%
  activity at 50 µM: 0%
Parietal cells; Forskolin
  activity at 0.1 µM: 100%
  activity at 0.5 µM: 100%
  activity at 5 µM: 100%
  activity at 50 µM: 100%
Parietal cells; preincubation with 0.1-5.0 μM
  acid secretion in parietal cells: blocked acid secretion
[3]
  calcium entering through the plasma membrane calcium channels: inhibits calcium from entering
